Activity calls are given as the source filed them. No cut-off for these calls is given here. Non-standard residues stand in square brackets, D forms with d. Residues, ends and D or L forms follow the SMILES beside them. Aib = CC(C)(N)C(=O)O
How the values were obtained:
PC-12 [1] = test: Protection against amyloid beta-induced neurotoxicity in rat PC-12 cells assessed as cell viability at 2 uM by MTT assay (reference value: 63.6 %); format: functional; conditions: read-out: Activity
PC-12 [2] = test: Protection against amyloid beta-induced neurotoxicity in rat PC-12 cells assessed as cell viability at 4 uM by MTT assay (reference value: 63.6 %); format: functional; conditions: read-out: Activity
PC-12 [3] = test: Protection against amyloid beta-induced neurotoxicity in rat PC-12 cells assessed as cell viability at 10 uM by MTT assay (reference value: 63.6 %); format: functional; conditions: read-out: Activity
[4] = Inhibition of amyloid beta-induced neurotoxicity in rat PC-12 cells at 2 uM by MTT assay relative to control; format: functional
[5] = Inhibition of amyloid beta-induced neurotoxicity in rat PC-12 cells at 4 uM by MTT assay relative to control; format: functional
[6] = Inhibition of amyloid beta-induced neurotoxicity in rat PC-12 cells at 10 uM by MTT assay relative to control; format: functional
[7] = target: Amyloid-beta precursor protein (Homo sapiens) (UniProt P05067); test: Inhibition of amyloid beta (1 to 42) (unknown origin) self aggregation at 2 uM by ThT fluorescence assay relative to control
[8] = target: Amyloid-beta precursor protein (Homo sapiens) (UniProt P05067); test: Inhibition of amyloid beta (1 to 42) (unknown origin) self aggregation at 10 uM by ThT fluorescence assay relative to control
[9] = target: Amyloid-beta precursor protein (Homo sapiens) (UniProt P05067); test: Inhibition of amyloid beta (1 to 42) (unknown origin) self aggregation at 2 to 10 uM by ThT fluorescence assay; conditions: dose 2-10 µM
[10] = target: Amyloid-beta precursor protein (Homo sapiens) (UniProt P05067); test: Inhibition of amyloid beta (1 to 42) (unknown origin) self-aggregation measured for 7 days by ThT fluorescence assay; conditions: time 7.0 day
[11] = target: Amyloid-beta precursor protein (Homo sapiens) (UniProt P05067); test: Inhibition of amyloid beta (1 to 42 ) (unknown origin) self aggregation in liposome-mimicked rat neuronal membrane assessed as fluorescence quenching at 1:5 amyloid-beta:compound concentration ratio incubated for 72 hrs by ANS fluorescence spectra; format: cell membranes; conditions: Neuron
[12] = target: Amyloid-beta precursor protein (Homo sapiens) (UniProt P05067); test: Inhibition of amyloid beta (1 to 42) (unknown origin) self-aggregation assessed as alpha-helix content at 1:5 amyloid-beta:compound concentration ratio incubated for 48 hrs by CD spectroscopy (reference value: 0 %); design: scale not given: the % may be the effect or the level left
[13] = target: Amyloid-beta precursor protein (Homo sapiens) (UniProt P05067); test: Inhibition of amyloid beta (1 to 42) (unknown origin) self-aggregation assessed as beta-sheet content at 1:5 amyloid-beta:compound concentration ratio incubated for 48 hrs by CD spectroscopy (reference value: 55.2 %); design: scale not given: the % may be the effect or the level left
[14] = target: Amyloid-beta precursor protein (Homo sapiens) (UniProt P05067); test: Inhibition of amyloid beta (1 to 42) (unknown origin) self-aggregation assessed as beta-turn content at 1:5 amyloid-beta:compound concentration ratio incubated for 48 hrs by CD spectroscopy (reference value: 44.8 %); design: scale not given: the % may be the effect or the level left
[15] = target: Amyloid-beta precursor protein (Homo sapiens) (UniProt P05067); test: Inhibition of amyloid beta (1 to 42) (unknown origin) self-aggregation assessed as random coil content at 1:5 amyloid-beta:compound concentration ratio incubated for 48 hrs by CD spectroscopy (reference value: 0 %); design: scale not given: the % may be the effect or the level left
[16] = target: Amyloid-beta precursor protein (Homo sapiens) (UniProt P05067); test: Inhibition of amyloid beta (1 to 40) (unknown origin) self-aggregation assessed as alpha-helix content at 1:5 amyloid-beta:compound concentration ratio incubated for 48 hrs by CD spectroscopy (reference value: 0 %); design: scale not given: the % may be the effect or the level left
[17] = target: Amyloid-beta precursor protein (Homo sapiens) (UniProt P05067); test: Inhibition of amyloid beta (1 to 40) (unknown origin) self-aggregation assessed as beta-sheet content at 1:5 amyloid-beta:compound concentration ratio incubated for 48 hrs by CD spectroscopy (reference value: 59.7 %); design: scale not given: the % may be the effect or the level left
[18] = target: Amyloid-beta precursor protein (Homo sapiens) (UniProt P05067); test: Inhibition of amyloid beta (1 to 40) (unknown origin) self-aggregation assessed as beta-turn content at 1:5 amyloid-beta:compound concentration ratio incubated for 48 hrs by CD spectroscopy (reference value: 0 %); design: scale not given: the % may be the effect or the level left
[19] = target: Amyloid-beta precursor protein (Homo sapiens) (UniProt P05067); test: Inhibition of amyloid beta (1 to 40) (unknown origin) self-aggregation assessed as random coil content at 1:5 amyloid-beta:compound concentration ratio incubated for 48 hrs by CD spectroscopy (reference value: 40.3 %); design: scale not given: the % may be the effect or the level left
[20] = target: Amyloid-beta precursor protein (Homo sapiens) (UniProt P05067); test: Inhibition of amyloid beta (1 to 40)/amyloid beta (1 to 42) (unknown origin) self-aggregation assessed as alpha-helix content at 1:5 amyloid-beta:compound concentration ratio incubated for 48 hrs by CD spectroscopy (reference value: 0 %); design: scale not given: the % may be the effect or the level left
[21] = target: Amyloid-beta precursor protein (Homo sapiens) (UniProt P05067); test: Inhibition of amyloid beta (1 to 40)/amyloid beta (1 to 42) (unknown origin) self-aggregation assessed as beta-sheet content at 1:5 amyloid-beta:compound concentration ratio incubated for 48 hrs by CD spectroscopy (reference value: 70.8 %); design: scale not given: the % may be the effect or the level left
[22] = target: Amyloid-beta precursor protein (Homo sapiens) (UniProt P05067); test: Inhibition of amyloid beta (1 to 40)/amyloid beta (1 to 42) (unknown origin) self-aggregation assessed as beta-turn content at 1:5 amyloid-beta:compound concentration ratio incubated for 48 hrs by CD spectroscopy (reference value: 29.2 %); design: scale not given: the % may be the effect or the level left
[23] = target: Amyloid-beta precursor protein (Homo sapiens) (UniProt P05067); test: Inhibition of amyloid beta (1 to 40)/amyloid beta (1 to 42) (unknown origin) self-aggregation assessed as random coil content at 1:5 amyloid-beta:compound concentration ratio incubated for 48 hrs by CD spectroscopy (reference value: 0 %); design: scale not given: the % may be the effect or the level left
[24] = target: Amyloid-beta precursor protein (Homo sapiens) (UniProt P05067); test: Inhibition of amyloid beta (1 to 42 ) (unknown origin) self-aggregation assessed as decrease in appearance of peak at m/z 685.4383 at 1:5 amyloid-beta:compound concentration ratio incubated for 72 hrs by HRMS-ESI analysis
[25] = target: Amyloid-beta precursor protein (Homo sapiens) (UniProt P05067); test: Inhibition of amyloid beta (1 to 42 ) (unknown origin) self-aggregation assessed as appearance of peak at m/z 1224.4239 at 1:5 amyloid-beta:compound concentration ratio incubated for 72 hrs by HRMS-ESI analysis
[26] = target: Amyloid-beta precursor protein (Homo sapiens) (UniProt P05067); test: Inhibition of amyloid beta (1 to 42 ) (unknown origin) self-aggregation assessed as appearance of peak at m/z 722.4940 at 1:5 amyloid-beta:compound concentration ratio incubated for 72 hrs by HRMS-ESI analysis
[27] = target: Amyloid-beta precursor protein (Homo sapiens) (UniProt P05067); test: Inhibition of amyloid beta (1 to 42 ) (unknown origin) self-aggregation assessed as appearance of peak at m/z 507.3270 at 1:5 amyloid-beta:compound concentration ratio incubated for 72 hrs by HRMS-ESI analysis
[28] = target: Amyloid-beta precursor protein (Homo sapiens) (UniProt P05067); test: Inhibition of amyloid beta (1 to 42) (unknown origin) self-aggregation assessed as absence of fibrillar aggregates at 1:5 amyloid-beta:compound concentration ratio incubated for 72 hrs by high-resolution transmission electron microscopic analysis
[29] = target: Amyloid-beta precursor protein (Homo sapiens) (UniProt P05067); test: Inhibition of amyloid beta (1 to 42) (unknown origin) self-aggregation assessed as absence of fibrillar aggregates at 1:5 amyloid-beta:compound concentration ratio incubated for 72 hrs by scanning transmission electron microscopic analysis
[30] = target: Amyloid-beta precursor protein (Homo sapiens) (UniProt P05067); test: Inhibition of amyloid beta (1 to 42) (unknown origin) self-aggregation assessed as absence of fibrillar aggregates at 1:5 amyloid-beta:compound concentration ratio measured immediately by high-resolution transmission electron microscopic analysis
[31] = target: Amyloid-beta precursor protein (Homo sapiens) (UniProt P05067); test: Inhibition of amyloid beta (1 to 42) (unknown origin) self-aggregation assessed as absence of fibrillar aggregates at 1:5 amyloid-beta:compound concentration ratio measured immediately by scanning transmission electron microscopic analysis
[32] = target: Amyloid-beta precursor protein (Homo sapiens) (UniProt P05067); test: Inhibition of amyloid beta (1 to 42) (unknown origin) self-aggregation assessed as reduction in polydispersity index measured after 7 days by dynamic light scattering analysis; conditions: time 7.0 day
[33] = target: Amyloid-beta precursor protein (Homo sapiens) (UniProt P05067); test: Inhibition of amyloid beta (1 to 42) (unknown origin) self-aggregation assessed as Z-average value measured after 7 days by dynamic light scattering analysis; conditions: time 7.0 day
[34] = Cytotoxicity against rat PC-12 cells assessed as cell viability at 20 uM by MTT assay relative to control; format: toxicity, cell-based; conditions: read-out: Activity
[35] = Cytotoxicity against rat PC-12 cells assessed as cell viability at 50 uM by MTT assay relative to control; format: toxicity, cell-based; conditions: read-out: Activity
SH-SY5Y = test: Inhibition of amyloid beta (1 to 42)-induced toxicity in human SH-SY5Y cells assessed as cell survival at 50 uM incubated for 24 hrs by MTT assay relative to control; format: functional; conditions: read-out: Survival

Amyloid-beta precursor protein (Homo sapiens), sequence (P05067 whole entry): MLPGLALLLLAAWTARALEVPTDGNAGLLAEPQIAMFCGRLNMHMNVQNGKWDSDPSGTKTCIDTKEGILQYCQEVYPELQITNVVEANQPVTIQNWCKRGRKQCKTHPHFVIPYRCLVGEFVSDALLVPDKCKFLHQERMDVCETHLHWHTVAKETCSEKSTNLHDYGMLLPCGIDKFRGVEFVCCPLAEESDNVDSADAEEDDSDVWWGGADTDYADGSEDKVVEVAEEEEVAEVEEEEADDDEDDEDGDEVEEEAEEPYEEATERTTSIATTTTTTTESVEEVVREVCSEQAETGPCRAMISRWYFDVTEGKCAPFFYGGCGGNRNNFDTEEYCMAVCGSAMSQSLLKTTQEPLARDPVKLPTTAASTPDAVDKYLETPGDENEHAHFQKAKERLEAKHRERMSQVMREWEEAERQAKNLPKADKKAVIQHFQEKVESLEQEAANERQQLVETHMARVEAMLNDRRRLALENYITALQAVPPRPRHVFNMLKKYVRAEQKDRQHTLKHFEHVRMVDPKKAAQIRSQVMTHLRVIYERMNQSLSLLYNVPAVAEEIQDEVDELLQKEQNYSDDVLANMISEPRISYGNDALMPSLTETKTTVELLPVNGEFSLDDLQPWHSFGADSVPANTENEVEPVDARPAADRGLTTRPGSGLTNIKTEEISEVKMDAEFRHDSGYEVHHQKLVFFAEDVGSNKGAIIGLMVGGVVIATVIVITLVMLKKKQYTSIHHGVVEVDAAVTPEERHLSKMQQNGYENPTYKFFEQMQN

CC[C@H](C)[C@H](NC(=O)[C@H](C)N)C(=O)NC(C)(C)C(=O)N[C@H](C(N)=O)C(C)C (H-AI[Aib]V-NH2)
viability at 2 µM (PC-12 [1]): 66.1%
viability at 4 µM (PC-12 [2]): 82.8%
viability at 10 µM (PC-12 [3]): 90.2%
inhibition at 2 µM [4]: 7%
inhibition at 4 µM [5]: 53%
inhibition at 10 µM [6]: 73%
inhibition [7]: 62.7%
inhibition [8]: 80.8%
inhibition [9]: Active
inhibition [10]: Active
inhibition [11]: Active; Blue Shift Of 2 To 3 Nm And Isoemissive Point At ~427 Nm Observed
Activity [12]: 14.4%
Activity [13]: 0%
Activity [14]: 49%
Activity [15]: 36.6%
Activity [16]: 21.6%
Activity [17]: 0%
Activity [18]: 40.3%
Activity [19]: 38.1%
Activity [20]: 23.9%
Activity [21]: 1.9%
Activity [22]: 48.4%
Activity [23]: 25.7%
inhibition [24]: Active; Peak Corresponds To Aggregates
inhibition [25]: Active; Peaks Corresponds To [(Amyloidbeta (21 To 42) + M)4+ ]
inhibition [26]: Active; Peaks Corresponds To [Amyloidbeta (1 To 42) + M + Na]7+
inhibition [27]: Active; Peaks Corresponds To [Amyloidbeta (1 To 42) + M]4+
inhibition [28]: Active
inhibition [29]: Active
inhibition [30]: Active
inhibition [31]: Active
inhibition [32]: Active
inhibition [33]: Active
viability at 20 µM [34]: 98.5%
viability at 50 µM [35]: 97.9%

H-RIIGL-NH2
viability at 50 µM (SH-SY5Y): 84%
